Measurements from US20100215618A1, “NOVEL COMPOUNDS - 644” (Arrow Therapeutics Limited, priority 2009, published 2010).
Where two headings read alike, the source gives them in different places.

How the values were obtained:
[1] = test system: HCV replicon cells Huh 9B (genotype 1b); assay: 1b Replicon Assay (luciferase readout); type: cell-based; conditions: Hepatitis C virus, Huh 9B replicon cells, 72 h, luciferase activity
[2] = test system: HCV replicon cells Huh 9B; type: cell-based; conditions: Huh 9B replicon cells, 72 h, methylene blue, total cell area reduced by 50%
Procedure: HCV replicon cells Huh 9B (ReBlikon), containing the firefly luciferase-ubiquitin-neomycin phosphotransferase fusion protein and EMCV-IRES driven HCV polyprotein with cell culture adaptive mutations.
Replicon cells were trypsinised and counted. Cells were diluted to 100,000 cells/ml and 100 μl used to seed one opaque white 96-well plate (for the replicon assay) and one flat-bottomed clear plate (for the tox assay) for every five compounds to be tested for IC50. Wells G12 and H12 were left empty in the clear plate as the blank. Plates were then incubated at 37° C./5% CO2 for 24 h.
On the following day compound dilutions were prepared in medium at twice their desired final concentration in a clear round bottomed plate. All dilutions have a final DMSO concentration of 1%.
Controls and compounds were transferred from the dilution plates to the assay plates (containing the cells) at 100 μl/well in duplicate wells.
Exception: no compound was added to wells A1 and A2 of either plate and 100 μl of 1% DMSO was added to these instead. Plates were then incubated at 37° C./5% CO2 for 72 h.
The clear plate was stained with 100 μA 0.5% methylene blue in 50% ethanol at room temperature for 1 h, followed by solvation of the absorbed methylene blue in 100 μl per well of 1% lauroylsarcosine. Absorbance of the plate was measured on a microplate spectrophotometer (Molecular Devices) and the absorbance for each concentration of compound expressed as a proportion of the relative DMSO control. The TD50, the is concentration of drug required to reduce the total cell area by 50% relative to the DMSO controls, was calculated by plotting the absorbance at 620 nm after background substraction against drug concentration.

in vitro = in vitro ADME, Canine; conditions: dog, MDCK
Procedure: Cells used: MDCK (Madin-Darby Canine Kidney) cells, ATCC collection # CCL-34, are used to model the intestinal barrier. Cell culture conditions: cells were cultured at 37° C. in a 5% CO2 environment and split twice a week on seeding at 4×10^5 cells/flask (75 cm^2) on day 1 and 2×10^5 cells/flask on day 4. The culture medium consisted of MEM+Earle's-L Glutamine (Gibco #21090-022) supplemented with 10% Australian Fetal Calf Serum (Sigma #F6178), 2 mM L-Glutamine (Gibco #25030-024) and 1× Non Essential Amino Acids (Gibco #11140-035)
On day 1, a 24-well plate (Sarstedt, #83.1836.300) was filled with individual 3 lam pore membrane inserts (Millipore, #PITP 012 50). Each plate allows the testing of a cocktail of 3 control compounds and 11 test compounds in duplicate. The wells (outside the inserts) were filled with 500 μl of culture medium.
A flask of cells was trypsinised and a cell count carried out. Cells were diluted to 1.2×10^5 cells/ml (1×10^5 cells/cm^2) and 500 μl dispensed in each insert on the 24-well plate. The plate was incubated at 37° C. in a 5% CO2 environment for 48 hours.
On day 3, the culture medium was removed from the wells, then the inserts and is replaced with fresh culture medium in the wells, then the inserts (500111 per well and insert) The plate was incubated at 37° C. in a 5% CO2 environment for 24 hours.
On day 4, the controls cocktail and test compounds solutions were made up in HBSS buffer (Hank's Balanced Salt Solution, Gibco #14025-050) at 1011M. The final controls and test compounds concentration in the assay was 10 μM, and DMSO concentration maintained at 0.1% (0.3% for the controls cocktail). The controls cocktail was made up of Atenolol (Sigma # A-7655), Dexamethasone (Sigma #D-1756) and Propranolol (Sigma # P-0884).
A 24-well plate was filled with 500 μl of HBSS buffer per well (assay plate) The culture medium was removed from the wells and inserts. The inserts were washed three times with approximately 500 μl of HBSS buffer. The inserts were transferred to the assay plate. Controls cocktail and test compounds solutions were dispensed inside the inserts (500 μl per insert), in duplicates. The assay plate was incubated at 37° C. in a 5% CO2 environment for 2 hours.
After 2 hours, the inserts were removed from the assay plate and transferred into a new 24-well plate (wash plate) The assay plate containing the receiver solutions was left aside for later sampling. To measure the mass balance, 150 μl were sampled from each insert (donor solutions) and dispensed into 150 μl of HPLC-grade Acetonitrile (Fisher Scientific) containing an internal standard and 0.05% formic acid.
The donor solutions were aspirated and discarded from each insert, and the inserts washed once with approximately 500 μl of HBSS buffer. A 24-well plate was filled with 500 μl of HBSS buffer per well (monolayer integrity plate) A Lucifer Yellow (Sigma #L0144) solution was made up at 1001.1M in HBSS buffer. The empty inserts were transferred into the monolayer integrity plate and filled with 500 μl of the Lucifer Yellow solution to determine the cell monolayers integrity and leftover of the solution was kept in a fridge. The plate was incubated at 37° C. in a 5% CO2 environment for 2 hours.
In the meantime, 150 μl were sampled from the assay plate (receiver solutions) and dispensed into 150 μl of HPLC-grade Acetonitrile containing an internal standard and 0.05% formic acid. A calibration curve was made for each mix of compounds (as appropriate depending on compounds molecular weights) A 10 μM mix of compounds in HBSS buffer was diluted 1:1 in HPLC-grade Acetonitrile containing an internal standard and 0.05% formic acid. A 1:1 mix of HBSS buffer and HPLC-grade Acetonitrile containing an internal standard and 0.05% formic acid was made up and used to make up the calibration curve (2 fold dilutions), with concentrations ranging from 10 μM to 0.078 μM. […]

For `COC(=O)N[C@H](C(=O)N1CCC[C@H]1c1ncc(-c2ccc(-c3ccc(C(=O)Nc4ccc(CN5CCS(=O)(=O)CC5)cc4)cc3)cc2)[nH]1)[C@@H](C)O` [Example 17, Methyl N-[(1S,2R)-1-[(2S)-2-[5-[4-[4-[[4-[(1,1-dioxo-1,4-thiazinan-4-yl)methyl]phenyl]carbamoyl]phenyl]phenyl]-1H-imidazol-2-yl]pyrrolidine-1-carbonyl]-2-hydroxy-propyl]carbamate], the IC50 ([1]; read-out: HCV IC50 1b Replicon) was 0.3 nM, the IC50 ([1]; read-out: pIC50 1b Replicon (converted)) was 0.302 nM and the “HCV TD50 Replicon” value [2] was 18.4 µM. For the same compound, the Papp at 2 h, 10 µM (in vitro) was 0.4 ×10⁻⁶ cm/s.
